Source: patent US4537717A
Converted amounts (≈) assume the structure as drawn.

Columns and labels:
[1] = test system: Staphylococcus aureus ATCC 6738P; test: agar-plate disc-diffusion test; assay type: cell-based; conditions: suspended in water at 1 mg/ml; 7 mm disc; 24-48 hours at 25-37° C.
[2] = test system: Micrococcus luteus ATCC 9341; test: agar-plate disc-diffusion test; assay type: cell-based; conditions: suspended in water at 1 mg/ml; 7 mm disc; 24-48 hours at 25-37° C.
[3] = test system: Staphylococcus aureus X1.1; assay type: cell-based; conditions: agar dilution; 2, 5, 17, 22 median of three tests; paired values two experiments
[4] = test system: Staphylococcus aureus V41; assay type: cell-based; conditions: penicillin-resistant strain; agar dilution; 2, 5, 17, 22 median of three tests; paired values two experiments
[5] = test system: Staphylococcus aureus X400; assay type: cell-based; conditions: methicillin-resistant strain; agar dilution; 2, 5, 17, 22 median of three tests; paired values two experiments
[6] = test system: Staphylococcus epidermidis EPI1; assay type: cell-based; conditions: agar dilution; 2, 5, 17, 22 median of three tests; paired values two experiments
[7] = test system: Staphylococcus epidermidis EPI2; assay type: cell-based; conditions: agar dilution; 2, 5, 17, 22 median of three tests; paired values two experiments
[8] = test system: Streptococcus pyogenes C203; assay type: cell-based; conditions: agar dilution; 2, 5, 17, 22 median of three tests; paired values two experiments
[9] = test system: Streptococcus pneumoniae Park I; assay type: cell-based; conditions: agar dilution; 2, 5, 17, 22 median of three tests; paired values two experiments
[10] = test system: Streptococcus pneumoniae Group D X66; assay type: cell-based; conditions: agar dilution; 2, 5, 17, 22 median of three tests; paired values two experiments
[11] = test system: Streptococcus Group 9960; assay type: cell-based, Streptococcus pneumoniae; conditions: agar dilution; 2, 5, 17, 22 median of three tests; paired values two experiments
[12] = test system: Staphylococcus aureus; test: in vivo activity against experimental bacterial infection (ED50); conditions: mice; two doses subcutaneously; dose protecting fifty percent of test animals
[13] = test system: Streptococcus pyogenes; test: as above; conditions: mice, dose protecting fifty percent of test animals; for ED50 Streptococcus pyogenes Oral: two doses orally; for ED50 Streptococcus pyogenes Subcutaneous: two doses subcutaneously
[14] = toxicity test (LD50); conditions: mouse, in vivo, iv, mice; administered intravenously
[15] = test system: Bacillus subtilis ATCC 6633; test: agar-plate disc-diffusion test; conditions: 7 mm disc, 24-48 hours at 25-37° C.; for Size of Zone of Inhibition (mm) B. subtilis ATCC 6633, grown on minimal nutrient agar: 1 mg/ml; for Size of Zone of Inhibition (mm) Bacillus subtilis ATCC 6633: suspended in water at 1 mg/ml
Experimental: ^a Compounds were suspended in water at a concentration of 1 mg/ml; a
7 mm disc was dipped into the suspension and then placed on the agar
surface; incubation: 24-48 hours at 25-37° C.
^b Grown on minimal nutrient agar

SMILES | Size of Zone of Inhibition (mm) Staphylococcus aureus ATCC 6738P [1] [mm] | Size of Zone of Inhibition (mm) Micrococcus luteus ATCC 9341 [2] [mm] | MIC Staphylococcus aureus X1.1 [3] [µg/mL] | MIC Staphylococcus aureus V41 [4] [µg/mL] | MIC Staphylococcus aureus X400 [5] [µg/mL] | MIC Staphylococcus epidermidis EPI1 [6] [µg/mL] | MIC Staphylococcus epidermidis EPI2 [7] [µg/mL] | MIC Streptococcus pyogenes C203 [8] [µg/mL] | MIC Streptococcus pneumoniae Park I [9] [µg/mL] | MIC Streptococcus pneumoniae Group D X66 [10] [µg/mL] | MIC Streptococcus pneumoniae Group 9960 [11] [µg/mL] | ED50 Staphylococcus aureus Subcutaneous [12] [mg/kg × 2] | ED50 Streptococcus pyogenes Oral [13] [mg/kg × 2] | ED50 Streptococcus pyogenes Subcutaneous [13] [mg/kg × 2] | LD50 [14] [mg/kg] | Size of Zone of Inhibition (mm) B. subtilis ATCC 6633, grown on minimal nutrient agar [15] [mm] | Size of Zone of Inhibition (mm) Bacillus subtilis ATCC 6633 [15] [mm]
C=CCCCCCCCCC(=O)N[C@@H](Cc1c[nH]c2ccccc12)C(=O)N[C@@H](CC(N)=O)C(=O)N[C@@H](CC(=O)O)C(=O)N[C@@H]1C(=O)NCC(=O)N[C@@H](CCCN)C(=O)N[C@@H](CC(=O)O)C(=O)N[C@H](C)C(=O)N[C@@H](CC(=O)O)C(=O)NCC(=O)N[C@H](CO)C(=O)N[C@@H]([C@H](C)CC(=O)O)C(=O)N[C@@H](CC(=O)c2ccccc2N)C(=O)O[C@@H]1C [Compound 11] | 21 | 20 | 0.5 (≈ 0.306 µM) | 0.5 (≈ 0.306 µM) | 0.5 (≈ 0.306 µM) | 1 (≈ 0.612 µM) | 1 (≈ 0.612 µM) | 0.5 (≈ 0.306 µM) | 0.25 (≈ 0.153 µM) | 1 (≈ 0.612 µM) | 0.5 (≈ 0.306 µM) | 0.93 | 138 | 0.068 | ≥ 500 | 25 | 17
CCCCCCCCCCCCCCC(=O)N[C@@H](Cc1c[nH]c2ccccc12)C(=O)N[C@@H](CC(N)=O)C(=O)N[C@@H](CC(=O)O)C(=O)N[C@@H]1C(=O)NCC(=O)N[C@@H](CCCN)C(=O)N[C@@H](CC(=O)O)C(=O)N[C@H](C)C(=O)N[C@@H](CC(=O)O)C(=O)NCC(=O)N[C@H](CO)C(=O)N[C@@H]([C@H](C)CC(=O)O)C(=O)N[C@@H](CC(=O)c2ccccc2N)C(=O)O[C@@H]1C [Compound 9] | 20 | 19 | 1 (≈ 0.591 µM) | 1 (≈ 0.591 µM) | 2 (≈ 1.18 µM) | 2 (≈ 1.18 µM) | 4 (≈ 2.37 µM) | 1 (≈ 0.591 µM) | 0.06 (≈ 0.0355 µM) | 2 (≈ 1.18 µM) | 0.25 (≈ 0.148 µM) | 8.3 | > 200 | – | 56.2 | 24 | 19
CCCCCCCCCCC(=O)N[C@@H](Cc1c[nH]c2ccccc12)C(=O)N[C@@H](CC(N)=O)C(=O)N[C@@H](CC(=O)O)C(=O)N[C@@H]1C(=O)NCC(=O)N[C@@H](CCCN)C(=O)N[C@@H](CC(=O)O)C(=O)N[C@H](C)C(=O)N[C@@H](CC(=O)O)C(=O)NCC(=O)N[C@H](CO)C(=O)N[C@@H]([C@H](C)CC(=O)O)C(=O)N[C@@H](CC(=O)c2ccccc2N)C(=O)O[C@@H]1C [Compound 5] | 19 | 21 | 0.25 (≈ 0.153 µM) | 0.25 (≈ 0.153 µM) | 0.5 (≈ 0.306 µM) | 0.5 (≈ 0.306 µM) | 0.5 (≈ 0.306 µM) | 0.125 (≈ 0.0765 µM) | 0.25 (≈ 0.153 µM) | 2 (≈ 1.22 µM) | 0.5 (≈ 0.306 µM) | 0.37 | 138 | 0.13 | > 600 | 21 | 19
CCCCCCCCCCCCC(=O)N[C@@H](Cc1c[nH]c2ccccc12)C(=O)N[C@@H](CC(N)=O)C(=O)N[C@@H](CC(=O)O)C(=O)N[C@@H]1C(=O)NCC(=O)N[C@@H](CCCN)C(=O)N[C@@H](CC(=O)O)C(=O)N[C@H](C)C(=O)N[C@@H](CC(=O)O)C(=O)NCC(=O)N[C@H](CO)C(=O)N[C@@H]([C@H](C)CC(=O)O)C(=O)N[C@@H](CC(=O)c2ccccc2N)C(=O)O[C@@H]1C [Compound 7] | 21 | 19 | 0.125 (≈ 0.0752 µM) | 0.125 (≈ 0.0752 µM) | 0.5 (≈ 0.301 µM) | 0.5 (≈ 0.301 µM) | 0.5 (≈ 0.301 µM) | 0.25 (≈ 0.15 µM) | 0.25 (≈ 0.15 µM) | 0.03 (≈ 0.018 µM) | 32 (≈ 19.2 µM) | 0.54 | 45 | 0.046 | 112 | 29 | 17
CCCCCCCCCCCCCCCC(=O)N[C@@H](Cc1c[nH]c2ccccc12)C(=O)N[C@@H](CC(N)=O)C(=O)N[C@@H](CC(=O)O)C(=O)N[C@@H]1C(=O)NCC(=O)N[C@@H](CCCN)C(=O)N[C@@H](CC(=O)O)C(=O)N[C@H](C)C(=O)N[C@@H](CC(=O)O)C(=O)NCC(=O)N[C@H](CO)C(=O)N[C@@H]([C@H](C)CC(=O)O)C(=O)N[C@@H](CC(=O)c2ccccc2N)C(=O)O[C@@H]1C [Compound 10] | 19 | 17 | 1 (≈ 0.587 µM) | 1 (≈ 0.587 µM) | 2 (≈ 1.17 µM) | 2 (≈ 1.17 µM) | 2 (≈ 1.17 µM) | 1 (≈ 0.587 µM) | 0.06 (≈ 0.0352 µM) | 2 (≈ 1.17 µM) | 0.25 (≈ 0.147 µM) | > 1.1 | > 200 | 0.18 | 50 | 23 | 17
CCCCCCCCCCC(=O)NCCC[C@@H]1NC(=O)CNC(=O)[C@@H](NC(=O)[C@H](CC(=O)O)NC(=O)[C@H](CC(N)=O)NC(=O)[C@H](Cc2c[nH]c3ccccc23)NC(=O)CCCCCCCCCC)[C@@H](C)OC(=O)[C@H](CC(=O)c2ccccc2N)NC(=O)[C@H]([C@H](C)CC(=O)O)NC(=O)[C@@H](CO)NC(=O)CNC(=O)[C@H](CC(=O)O)NC(=O)[C@@H](C)NC(=O)[C@H](CC(=O)O)NC1=O [Compound 17] | 17 | 14 | 1 (≈ 0.555 µM) | 4 (≈ 2.22 µM) | 4 (≈ 2.22 µM) | 8 (≈ 4.44 µM) | 8 (≈ 4.44 µM) | 0.25 (≈ 0.139 µM) | 0.125 (≈ 0.0693 µM) | 8 (≈ 4.44 µM) | 8 (≈ 4.44 µM) | > 35 | > 200 | 2.85 | 94 | 20 | 13
